Values quoted from earlier work, collected in article PMC7347157 (Chemical communications (Cambridge, England), 2019).

Conditions: unlabeled dienophile

Row | log P | Compound
1 | 1.11 | OC1CC/C=C/CCC1 (stereo not drawn) [5-hydroxy-trans-cyclooctene]
2 | 0.51 | trans-5-oxocene [compound 4]
